Results published in patent US5500427A, “Cyclic compounds and their use” (Takeda Chemical Industries, Ltd., priority 1992, dated 1996).

Tests used:
[1] = target: T1, angiotensin II receptor (Bos taurus, UniProt P25104); assay: Inhibitory Effect of Binding of Angiotensin-II to Angiotensin II Receptor (radioreceptor assay); settings: 125I-angiotensin II, bovine adrenal cortex membrane, room temperature, one hour; for inhibition at 1 µM: 10^-6 M; for inhibition at 0.1 µM: 10^-7 M
T1 construct: An A-II receptor membrane fraction was prepared from bovine adrenal cortex; from tissue; host or cells: bovine adrenal cortex membrane fraction
T1 sequence (P25104 1-359): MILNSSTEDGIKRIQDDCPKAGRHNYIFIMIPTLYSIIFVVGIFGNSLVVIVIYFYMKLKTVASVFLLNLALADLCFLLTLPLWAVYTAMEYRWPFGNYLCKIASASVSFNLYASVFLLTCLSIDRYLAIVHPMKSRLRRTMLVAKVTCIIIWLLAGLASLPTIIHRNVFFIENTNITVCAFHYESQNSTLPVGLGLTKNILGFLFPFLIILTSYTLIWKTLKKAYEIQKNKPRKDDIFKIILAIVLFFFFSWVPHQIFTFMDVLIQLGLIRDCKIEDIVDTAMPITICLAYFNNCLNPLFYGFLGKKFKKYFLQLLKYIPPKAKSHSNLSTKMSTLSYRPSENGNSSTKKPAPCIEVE
Experimental: Inhibitory Effect of Binding of Angiotensin-II to Angiotensin II Receptor
An experiment of inhibition on the binding of angiotensin II (A-II) receptor was performed by modified the method of Douglas et al. [Endocrinology, 102, 685-696 (1978)]. An A-II receptor membrane fraction was prepared from bovine adrenal cortex.
The compound of the present invention (10^-6 M or 10^-7 M) and ^125 I-angiotensin II (^125 I-AII) (2.44 KBq/50 microliter) were added to the receptor membrane fraction, and the mixture was incubated at room temperature for one hour. The receptor-bound and free I-AII were separated through a filter (Whatman GF/B filter), and the radioactivity of ^125 I-AII bound to the receptor was determined.

[2] = system: AII-induced Pressor Response; assay: Inhibitory Effect of the Compound of the Present Invention on AII-induced Pressor Response; assay type: in vivo; settings: A-II 100 ng/kg i.v., male Jcl:SD rats
Text: Inhibitory Effect of the Compound of the Present Invention on AII-induced Pressor Response
Jcl:SD rats (9 week old, male) were used. On the previous day of the experiment, rats were applied with cannulation into the femoral artery and vein under anesthesia with pentobarbital Na. These animals were fasted but allowed to access freely to drinking water until the experiment was started. Just on the day of conducting the experiment, the artery cannula was connected with a blood-pressure transducer, and the average blood pressure was recorded by polygraph. Before administration of the drug, the pressor action due to intravenous administration of A-II (100 ng/kg) as the control was determined. The drugs were orally administered, then, at each point of the determination, A-II was administered intravenously, and the pressor action was similarly determined. By comparing the pressor action before and after administration of the drug, the percent inhibition by the drug was evaluated.

inhibition at 1 µM [1]	inhibition at 0.1 µM [1]	SMILES	Pressor Response [p.o.] (percent inhibition of A-II pressor action) ([2]; 0.3 mg/kg p.o.)	Pressor Response [p.o.] (percent inhibition of A-II pressor action) ([2]; 1 mg/kg p.o.)
52%	17%	CCCN(Cc1ccc(-c2ccccc2-c2noc(=O)[nH]2)cc1)c1ncccc1C(=O)O [Example 2]	+++ (+++ ≥ 70%)	+++ (+++ ≥ 70%)
61%	20%	CCCN(Cc1ccc(-c2ccccc2-c2nsc(=O)[nH]2)cc1)c1ncccc1C(=O)O [Example 4]	–	+++ (+++ ≥ 70%)
55%	16%	CCCCN(Cc1ccc(-c2ccccc2-c2nc(=O)o[nH]2)cc1)c1ncccc1C(=O)O [Example 6, 2-[N-butyl-N-[2'-(2,5-dihydro-5-oxo-1,2,4-oxadiazol-3-yl)biphenyl-4-yl]methylamino]pyridine-3-carboxylic acid]	–	+++ (+++ ≥ 70%)
